In patent publication US8461328B2, “Tricyclic heterocyclic compounds, compositions and methods of use thereof” (Genentech, Inc., priority 2010, dated 2013):
pKi: −log10 of the molar value.

How the values were obtained:
Assay type in all cases: biochemical
TYK2 = biological target: T1, TYK2 (Homo sapiens, UniProt P29597); test: TYK2 inhibition (Table 4)
T1 construct: made in house; host or cells: SF9 insect cells (baculovirus)
T1 sequence (P29597 873-1187): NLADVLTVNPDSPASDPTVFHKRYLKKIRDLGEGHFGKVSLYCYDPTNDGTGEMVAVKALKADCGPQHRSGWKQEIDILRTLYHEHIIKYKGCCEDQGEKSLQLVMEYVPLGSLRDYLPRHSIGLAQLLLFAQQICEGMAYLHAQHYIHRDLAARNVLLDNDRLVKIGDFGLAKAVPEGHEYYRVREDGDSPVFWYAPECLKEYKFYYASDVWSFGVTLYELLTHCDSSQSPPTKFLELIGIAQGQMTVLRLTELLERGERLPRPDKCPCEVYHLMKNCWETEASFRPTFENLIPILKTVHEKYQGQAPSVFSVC

JAK2 = biological target: T2, JAK2 (Homo sapiens, UniProt O60674); test: JAK2 inhibition (Table 4); conditions: read-out: JAK2 Ki
T2 construct: made in house; host or cells: SF9 insect cells (baculovirus)

JAK3 = biological target: T3, JAK3 (Homo sapiens, UniProt P52333); test: JAK3 inhibition (Table 4); conditions: read-out: JAK3 Ki
T3 construct: made in house; host or cells: SF9 insect cells (baculovirus)

JAK1 = biological target: T4, JAK1 (Homo sapiens, UniProt P23458); test: JAK1 inhibition (Table 4); conditions: read-out: JAK1 Ki
T4 construct: made in house; host or cells: SF9 insect cells (baculovirus)
T4 sequence (P23458 852-1154): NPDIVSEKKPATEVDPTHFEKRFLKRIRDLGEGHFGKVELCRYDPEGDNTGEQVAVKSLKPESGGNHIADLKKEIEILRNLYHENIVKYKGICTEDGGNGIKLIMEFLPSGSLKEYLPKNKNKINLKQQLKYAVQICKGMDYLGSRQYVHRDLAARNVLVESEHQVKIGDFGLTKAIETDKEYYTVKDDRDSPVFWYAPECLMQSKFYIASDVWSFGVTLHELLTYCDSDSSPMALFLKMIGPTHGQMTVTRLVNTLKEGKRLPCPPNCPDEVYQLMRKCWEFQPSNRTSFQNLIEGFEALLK

T2 sequence (O60674 812-1132): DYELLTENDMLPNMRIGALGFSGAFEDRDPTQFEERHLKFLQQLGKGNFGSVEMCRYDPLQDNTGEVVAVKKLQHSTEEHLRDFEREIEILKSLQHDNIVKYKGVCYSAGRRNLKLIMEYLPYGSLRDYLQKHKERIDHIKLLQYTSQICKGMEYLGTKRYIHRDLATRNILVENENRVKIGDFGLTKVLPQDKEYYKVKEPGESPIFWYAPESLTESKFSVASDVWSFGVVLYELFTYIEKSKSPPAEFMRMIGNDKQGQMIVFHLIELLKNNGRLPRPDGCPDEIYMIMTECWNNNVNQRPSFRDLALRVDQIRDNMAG
T3 sequence (P52333 783-1124): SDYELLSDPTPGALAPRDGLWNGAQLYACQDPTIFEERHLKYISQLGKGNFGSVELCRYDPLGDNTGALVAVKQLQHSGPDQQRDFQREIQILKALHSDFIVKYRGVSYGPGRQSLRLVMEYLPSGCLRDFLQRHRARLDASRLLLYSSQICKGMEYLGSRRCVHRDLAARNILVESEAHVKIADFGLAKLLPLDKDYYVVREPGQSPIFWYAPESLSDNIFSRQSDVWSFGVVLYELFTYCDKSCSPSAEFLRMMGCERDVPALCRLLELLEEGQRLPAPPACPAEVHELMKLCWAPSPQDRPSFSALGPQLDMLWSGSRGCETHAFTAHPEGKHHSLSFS

Row | Molecule | pKi (TYK2) | pKi (JAK2) | pKi (JAK3) | pKi (JAK1)
1 | CNc1nc2cnc3[nH]ccc3c2n1C1CCN(S(C)(=O)=O)CC1 [Example 774, [1-(1-Methanesulfonyl-piperidin-4-yl) 1,6-dihydro-1,3,5,6-tetraaza-as-indacen-1-yl]-methyl-amine] | 6.85 | 7.08 | 6.62 | 7.39
2 | COCCNC1CCC(n2cnc3cnc4[nH]ccc4c32)C1 (racemic) [Example 726, (2-Methoxy-ethyl)-[3-(6H-1,3,5,6-tetraaza-as-indacen-1-yl)-cyclopentyl]-amine] | 5.65 | 6.11 | 6.12 | 6.76
3 | Cc1nc2cnc3[nH]ccc3c2n1C1CCS(=O)(=O)CC1 [Example 210, 1-(1,1-Dioxo-hexahydro-1-thiopyran-4-yl)-2-methyl-1,6-dihydro-1,2,3,5,6-tetraaza-as-indacene] | 6.29 | 6.19 | 6.19 | 6.83
4 | CC(=O)NCCOC(=O)N[C@H]1CC[C@H](n2cnc3cnc4[nH]ccc4c32)CC1 [Example 599, Trans[4-(6H-1,2,3,5,6-tetraaza-as-indacen-1-yl)-cyclohexyl]-carbamic acid 2-acetylamino-ethyl ester] | 6.92 | 7.58 | 6.73 | 8.11
5 | N#CCCN1CCC(n2c(CNC(=O)c3cccc(F)c3)nc3cnc4[nH]ccc4c32)CC1 [Example 505, N-{1-[1-(2-Cyano-ethyl)-piperidin-4-yl]-1,6-dihydro-1,3,5,6-tetraaza-as-indacen-2-ylmethyl}-3-fluoro-benzamide] | 7.01 | 7.65 | 7.69 | 8.29
6 | Cc1nc2cnc3[nH]ccc3c2n1C1CC2CCC1O2 (stereo not drawn) [Example 845, exo-2-Methyl-1-(7-oxa-bicyclo[2.2.1]hept-2-yl)-1,6-dihydro-1,3,5,6-tetraaza-as-indacene] | 7.54 | 7.86 | 7.28 | 8.38
7 | CCn1cc(CN2CCC(n3c([C@@H](C)O)nc4cnc5[nH]ccc5c43)CC2)cn1 [Example 822, (R)-1-{1-[1-(1-Ethyl-1H-pyrazol-4-ylmethyl)-piperidin-4-yl]-1,6-dihydro-1,3,5,6-tetraaza-as-indacen-2-yl}-ethanol] | 5.55 | 6.05 | 6.51 | 7.74
8 | CC(CC#N)N1CCC(n2c(C3CCC3)nc3cnc4[nH]ccc4c32)CC1 (racemic) [Example 392, 3-[4-(2-Cyclobutyl-6H-1,3,5,6-tetraaza-as-indacen-1-yl)-piperidin-1-yl]-butyronitrile] | 6.89 | 7.78 | 7.47 | 8.18
9 | (R)-1-{1-[1-(3,5-Dimethyl-1H-pyrazol-4-ylmethyl)-piperidin-4-yl]-1,6-dihydro-1,3,5,6-tetraaza-as-indacen-2-yl}-ethanol [Example 904] | 5.58 | 5.87 | 5.98 | 6.68
10 | CC(CC#N)N1CCC(n2c(CN3CCCC3=O)nc3cnc4[nH]ccc4c32)CC1 (racemic) [Example 399, 3-{4-[2-(2-Oxo-pyrrolidin-1-ylmethyl)-6H-1,3,5,6-tetraaza-as-indacen-1-yl]-piperidin-1-yl}-butyronitrile] | 6.75 | 7.01 | 6.90 | 7.48
11 | Cn1nccc1C(=O)NCc1nc2cnc3[nH]ccc3c2n1C1CCN(CCC#N)CC1 [Example 209, 2-Methyl-2H-pyrazole-3-carboxylic acid {1-[1-(2-cyano-ethyl)-piperidin-4-yl]-1,6-dihydro-1,2,3,5,6-tetraaza-as-indacen-2-ylmethyl}-amide] | 7.18 | 7.75 | 7.51 | 8.66
12 | O=C(N[C@H]1CC[C@H](n2cnc3cnc4[nH]ccc4c32)CC1)c1ccccc1 [Example 218, N-[4-(6H-1,3,5,6-Tetraaza-as-indacen-1-yl)-cyclohexyl]-benzamide] | 7.47 | 8.22 | 7.12 | 8.17
13 | CCN1CCC(n2nnc3cnc4[nH]ccc4c32)C(F)(F)C1 (racemic) [Example 533, 1-(1-Ethyl-3,3-difluoro-piperidin-4-yl)-1,6-dihydro-1,2,3,5,6-pentaaza-as-indacene] | 7.22 | 7.80 | 7.31 | 8.04
14 | CC(c1ccccc1)N1CCC(n2cnc3cnc4[nH]ccc4c32)CC1 (centres unmarked) [Example 51, 1-[1-(1-Phenyl-ethyl)-piperidin-4-yl]-1,6-dihydro-1,3,5,6-tetraaza-as-indacene] | 7.12 | 8.17 | 6.86 | 8.11
